The first assay has as its target T1, HCV NS5B (Hepatitis C virus genotype 1b, UniProt Q9WMX2).
T1 construct: The protein was expressed with an 18 amino acid C-terminal truncation to enhance the solubility; made in house; host or cells: E. coli BL21 (DE3), pET21a
Put plainly: HCV NS5B RdRp enzyme assay (preincubation protocol). The class given is biochemical. As to conditions: Table 1, read-out: IC50*. How it is done:
HCV NS5B RdRp cloning, expression, and purification. The cDNA encoding the NS5B protein of HCV, genotype 1b, was cloned into the pET21a expression vector. The protein was expressed with an 18 amino acid C-terminal truncation to enhance the solubility. The E. coli competent cell line BL21 (DE3) was used for expression of the protein. Cultures were grown at 37° C. for ˜4 hours until the cultures reached an optical density of 2.0 at 600 nm. The cultures were cooled to 20° C. and induced with 1 mM IPTG. Fresh ampicillin was added to a final concentration of 50 μg/ml and the cells were grown overnight at 20° C.
Cell pellets (3L) were lysed for purification to yield 15-24 mgs of purified NS5B. The lysis buffer consisted of 20 mM Tris-HCl, pH 7.4, 500 mM NaCl, 0.5% triton X-100, 1 mM DTT, 1 mM EDTA, 20% glycerol, 0.5 mg/ml lysozyme, 10 mM MgCl2, 15 ug/ml deoxyribonuclease I, and Complete TM protease inhibitor tablets (Roche). After addition of the lysis buffer, frozen cell pellets were resuspended using a tissue homogenizer. To reduce the viscosity of the sample, aliquots of the lysate were sonicated on ice using a microtip attached to a Branson sonicator. The sonicated lysate was centrifuged at 100,000×g for 1 hr at 4° C. and filtered through a 0.2 μm filter unit (Corning).
The protein was purified using three sequential chromatography steps: Heparin sepharose CL-6B, polyU sepharose 4B, and Hitrap SP sepharose (Pharmacia). The chromatography buffers were identical to the lysis buffer but contained no lysozyme, deoxyribonuclease I, MgCl2 or protease inhibitor and the NaCl concentration of the buffer was adjusted according to the requirements for charging the protein onto the column. Each column was eluted with a NaCl gradient which varied in length from 5-50 column volumes depending on the column type. After the final chromatography step, the resulting purity of the enzyme is >90% based on SDS-PAGE analysis. The enzyme was aliquoted and stored at −80° C.
Standard HCV NS5B RdRp enzyme assay. HCV RdRp genotype 1b assays were run in a final volume of 60 μl in 96 well plates (Costar 3912). The assay buffer is composed of 20 mM Hepes, pH 7.5, 2.5 mM KCl, 2.5 mM MgCl2, 1 mM DTT, 1.6 U RNAse inhibitor (Promega N2515), 0.1 mg/ml BSA (Promega R3961), and 2% glycerol. All compounds were serially diluted (3-fold) in DMSO and diluted further in water such that the final concentration of DMSO in the assay was 2%. HCV RdRp genotype 1b enzyme was used at a final concentration of 28 nM. A polyA template was used at 6 nM, and a biotinylated oligo-dT12 primer was used at 180 nM final concentration. Template was obtained commercially (Amersham 27-4110). Biotinylated primer was prepared by Sigma Genosys. 3H-UTP was used at 0.6 μCi (0.29 μM total UTP). Reactions were initiated by the addition of enzyme, incubated at 30° C. for 60 min, and stopped by adding […] of 50 mM EDTA containing SPA beads (4 μg/μl, Amersham RPNQ 0007). Plates were read on a Packard Top Count NXT after >1 hr incubation at room temperature.
Modified HCV NS5B RdRp enzyme assay. A modified enzyme assay was performed essentially as described for the standard enzyme assay except for the following: The biotinylated oligo dT12 primer was precaptured on streptavidin-coated SPA beads by mixing primer and beads in assay buffer and incubating at room temperature for one hour. Unbound primer was removed after centrifugation. The primer-bound beads were resuspended in 20 mM Hepes buffer, pH 7.5 and used in the assay at final concentrations of […] primer and 0.67 μg/μl beads. Order of addition in the assay: Enzyme (14 nM) was added to diluted compound followed by the addition of a mixture of template (0.2 nM), 3H-UTP (0.6 μCi, 0.29 μM), and primer-bound beads, to initiate the reaction; concentrations given are final. Reactions were allowed to proceed for 4 hours at 30° C.
IC50 values for compounds were determined using seven different [I]. […]
T1 sequence (Q9WMX2 2420-2992): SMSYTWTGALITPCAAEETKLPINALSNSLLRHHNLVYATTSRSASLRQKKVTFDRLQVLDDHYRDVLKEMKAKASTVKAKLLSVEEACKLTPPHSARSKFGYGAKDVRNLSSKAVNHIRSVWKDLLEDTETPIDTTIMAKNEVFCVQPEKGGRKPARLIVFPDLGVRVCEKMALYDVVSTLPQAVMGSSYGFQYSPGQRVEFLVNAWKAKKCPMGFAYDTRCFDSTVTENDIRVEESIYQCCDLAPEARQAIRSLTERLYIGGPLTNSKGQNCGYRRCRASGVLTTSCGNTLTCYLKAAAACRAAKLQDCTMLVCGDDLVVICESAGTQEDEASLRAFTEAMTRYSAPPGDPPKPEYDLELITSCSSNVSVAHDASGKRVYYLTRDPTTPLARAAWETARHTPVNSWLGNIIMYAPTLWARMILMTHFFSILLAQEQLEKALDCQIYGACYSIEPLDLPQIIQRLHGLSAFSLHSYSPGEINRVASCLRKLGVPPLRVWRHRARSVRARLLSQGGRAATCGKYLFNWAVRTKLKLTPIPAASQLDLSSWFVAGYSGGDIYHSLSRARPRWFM
In general, IC50 refers to the concentration needed to halve the response being measured. Take `COC(=O)c1ccc2c(C3CCCCC3)c3n(c2c1)CC(C(=O)N1CCC(N2CC[C@H](F)C2)CC1)=Cc1ccccc1-3`: the IC50 is > 1000 nM.

The same assay, now with this note: Table 1a, read-out: IC50*.
Consider `COC(=O)c1ccc2c(C3CCCCC3)c3n(c2c1)CC(NC(=O)OC(C)(C)C)Cc1ccccc1-3` (stereo not shown), for which the IC50 lay within 10 to 1000 nM.

Turning to `C=CCNC(=O)N1CCN(C(=O)C2=Cc3ccccc3-c3c(C4CCCCC4)c4ccc(C(=O)NS(=O)(=O)N(C)C)cc4n3C2)CC1`, the IC50 lay within 10 to 1000 nM.

Turning to `CNC(=O)N1CCN(C(=O)C2=Cc3ccccc3-c3c(C4CCCCC4)c4ccc(C(=O)NS(=O)(=O)N(C)C)cc4n3C2)CC1`, the IC50 lay within 10 to 1000 nM.

As for `O=C(NC[C@@H]1CCCO1)c1ccc2c(C3CCCCC3)c3n(c2c1)CC(C(=O)N1CCC(N2CCOCC2)CC1)=Cc1ccccc1-3`, the IC50 lay within 10 to 1000 nM.

With `COc1ccc2c(c1)CC(C(=O)N(C)CC(=O)N(C)C)Cn1c-2c(C2CCCCC2)c2ccc(C(=O)NS(=O)(=O)N(C)C)cc21` (stereo not shown), the IC50 was in the range of 10 to 1000 nM.

Turning to `CNC(=O)CNC(=O)C1=Cc2cc(OC)ccc2-c2c(C3CCCCC3)c3ccc(C(=O)O)cc3n2C1`, the IC50 lay in the range of 10 to 1000 nM.

As to `CN(C)C(=O)CNC(=O)c1ccc2c(C3CCCCC3)c3n(c2c1)CC(C(=O)N1CCC(N2CCOCC2)CC1)=Cc1ccccc1-3`, the half-inhibitory concentration (IC50) fell in the range of 10 to 1000 nM.

As to `CNC(=O)CNC(=O)C1=Cc2cc(OC)ccc2-c2c(C3CCCCC3)c3ccc(C(=O)NS(=O)(=O)N(C)C)cc3n2C1`, the IC50 fell in the range of 10 to 1000 nM.

In the case of `O=C(NCCc1nc2ccccc2[nH]1)c1ccc2c(C3CCCCC3)c3n(c2c1)CC(C(=O)N1CCC(N2CCOCC2)CC1)=Cc1ccccc1-3`, the IC50 lay within 10 to 1000 nM.

As to `COC(=O)c1ccc2c(C3CCCCC3)c3n(c2c1)CC(NC(=O)NC1CCN(C(=O)C(F)(F)F)CC1)Cc1ccccc1-3` (stereo not shown), the IC50 was > 1000 nM.

Turning to `CN1CCN(C(=O)C2=Cc3ccccc3-c3c(C4CCCCC4)c4ccc(C(=O)NS(=O)(=O)N(C)C)cc4n3C2)CC1=O`, the IC50 was in the range of 10 to 1000 nM.

For `CN(C)C(=O)CN(C)C(=O)C1=Cc2ccccc2-c2c(C3CCCCC3)c3ccc(C(=O)O)cc3n2C1`, the IC50 fell in the range of 10 to 1000 nM.

`COc1ccc2c(c1)C=C(C(=O)N(C)CC(=O)O)Cn1c-2c(C2CCCCC2)c2ccc(C(=O)O)cc21`: the IC50 lay within 10 to 1000 nM.

Take `COc1ccc2c(c1)C=C(C(=O)N(C)CC(=O)N1CCOCC1)Cn1c-2c(C2CCCCC2)c2ccc(C(=O)O)cc21`: the IC50 was in the range of 10 to 1000 nM.

On to `CN(C)C(=O)CN(C)C(=O)C1=Cc2ccccc2-c2c(C3CCCCC3)c3ccc(C(=O)NS(=O)(=O)N(C)C)cc3n2C1`, for which the IC50 was in the range of 10 to 1000 nM.

In the case of `COc1ccc2c(c1)C=C(C(=O)N1CCC[C@@H](OC(C)=O)C1)Cn1c-2c(C2CCCCC2)c2ccc(C(=O)NS(=O)(=O)N(C)C)cc21`, the IC50 was 10 to 1000 nM.

Turning to `CN(C)C(=O)C1CCN(C(=O)C2=Cc3ccccc3-c3c(C4CCCCC4)c4ccc(C(=O)NS(=O)(=O)N(C)C)cc4n3C2)CC1`, the IC50 lay within 10 to 1000 nM.

Turning to `COc1ccc2c(c1)C=C(C(=O)N(C)CC(=O)N1CCOCC1)Cn1c-2c(C2CCCCC2)c2ccc(C(=O)NS(=O)(=O)N(C)C)cc21`, the IC50 lay within 10 to 1000 nM.

On to `COc1ccc2c(c1)C=C(C(=O)N1C[C@@H](C)O[C@@H](C)C1)Cn1c-2c(C2CCCCC2)c2ccc(C(=O)NS(=O)(=O)N3CCN(C)CC3)cc21`, for which the IC50 is 10 to 1000 nM.

For `COc1ccc2c(c1)C=C(C(=O)N1CCN(C)C(=O)C1)Cn1c-2c(C2CCCCC2)c2ccc(C(=O)NS(=O)(=O)N(C)C)cc21`, the IC50 was 10 to 1000 nM.

With `CCN(CC)C(=O)CN(C)C(=O)C1=Cc2cc(OC)ccc2-c2c(C3CCCCC3)c3ccc(C(=O)NS(=O)(=O)N(C)C)cc3n2C1`, the IC50 was in the range of 10 to 1000 nM.

For the molecule `COCCNC(=O)CN(C)C(=O)C1=Cc2cc(OC)ccc2-c2c(C3CCCCC3)c3ccc(C(=O)NS(=O)(=O)N(C)C)cc3n2C1`, the IC50 fell in the range of 10 to 1000 nM.

On to `COC(=O)c1ccc2c(C3CCCCC3)c3n(c2c1)CC(NC(=O)C1CCCC(OC)C1)Cc1ccccc1-3` (stereo not shown), for which the IC50 was > 1000 nM.

`COc1ccc2c(c1)CC(C(=O)N(C)CC1CCCO1)Cn1c-2c(C2CCCCC2)c2ccc(C(=O)NS(=O)(=O)N(C)C)cc21` (stereo not shown): the IC50 lay in the range of 10 to 1000 nM.

`COc1ccc2c(c1)CC(C(=O)N(C)CC1CCCO1)Cn1c-2c(C2CCCCC2)c2ccc(C(=O)O)cc21` (stereo not shown): the 50% inhibitory concentration (IC50) was in the range of 10 to 1000 nM.

Regarding `COC(=O)c1ccc2c(C3CCCCC3)c3n(c2c1)CC(C(=O)NCC1CCCO1)Cc1cc(OC)ccc1-3` (stereo not shown), the IC50 is > 1000 nM.

Regarding `COc1ccc2c(c1)C=C(C(=O)N1CCC[C@H](OC(C)=O)C1)Cn1c-2c(C2CCCCC2)c2ccc(C(=O)NS(=O)(=O)N(C)C)cc21`, the half-inhibitory concentration (IC50) is 10 to 1000 nM.

On to `COc1ccc2c(c1)C=C(C(=O)N1CCC(C(=O)N(C)C)CC1)Cn1c-2c(C2CCCCC2)c2ccc(C(=O)NS(=O)(=O)N(C)C)cc21`, for which the IC50 lay in the range of 10 to 1000 nM.

On to `COc1ccc2c(c1)CC(N(C)C(=O)N1C[C@@H](C)O[C@@H](C)C1)Cn1c-2c(C2CCCCC2)c2ccc(C(=O)O)cc21` (stereo partly shown), for which the IC50 is 10 to 1000 nM.

As for `COCCNC(=O)CN(C)C(=O)C1Cc2cc(OC)ccc2-c2c(C3CCCCC3)c3ccc(C(=O)NS(=O)(=O)N(C)C)cc3n2C1` (stereo not shown), the 50% inhibitory concentration (IC50) lay within 10 to 1000 nM.

Regarding `CCN(CC)C(=O)CN(C)C(=O)C1Cc2cc(OC)ccc2-c2c(C3CCCCC3)c3ccc(C(=O)NS(=O)(=O)N(C)C)cc3n2C1` (stereo not shown), the IC50 lay within 10 to 1000 nM.

As for `COc1ccc2c(c1)CC(N(C)C(=O)N1C[C@@H](C)O[C@@H](C)C1)Cn1c-2c(C2CCCCC2)c2ccc(C(=O)NS(=O)(=O)N(C)C)cc21` (stereo partly shown), the IC50 lay in the range of 10 to 1000 nM.

Turning to `COC1CCCC(C(=O)N(C)C2Cc3ccccc3-c3c(C4CCCCC4)c4ccc(C(=O)NS(=O)(=O)N(C)C)cc4n3C2)C1` (stereo not shown), the half-maximal inhibitory concentration (IC50) is 10 to 1000 nM.

For `COC1CCCC(C(=O)N(C)C2Cc3ccccc3-c3c(C4CCCCC4)c4ccc(C(=O)O)cc4n3C2)C1` (stereo not shown), the IC50 lay in the range of 10 to 1000 nM.

`COC(=O)c1ccc2c(C3CCCCC3)c3n(c2c1)CC(NC(=O)C1CCOCC1)Cc1cc(OC)ccc1-3` (stereo not shown): the IC50 lay within 10 to 1000 nM.

On to `COc1ccc2c(c1)C=C(C(=O)N1CCN(C(=O)CN)CC1)Cn1c-2c(C2CCCCC2)c2ccc(C(=O)NS(=O)(=O)N(C)C)cc21`, for which the 50% inhibitory concentration (IC50) is < 20 nM.

For the molecule `COc1ccc2c(c1)CC(C(=O)N1CCN(C(=O)N(C)C)CC1)Cn1c-2c(C2CCCCC2)c2ccc(C(=O)NS(=O)(=O)N(C)C)cc21` (stereo not shown), the IC50 is 10 to 1000 nM.

As to `COC(=O)c1ccc2c(C3CCCCC3)c3n(c2c1)CC(C(=O)N1C[C@@H](C)N(C)[C@@H](C)C1)=Cc1cc(F)ccc1-3`, the concentration for half-maximal inhibition (IC50) was in the range of 10 to 1000 nM.

As to `COc1ccc2c(c1)CC(N(C)C(=O)C1CCOCC1)Cn1c-2c(C2CCCCC2)c2ccc(C(=O)NS(=O)(=O)N(C)C)cc21` (stereo not shown), the IC50 lay in the range of 10 to 1000 nM.

On to `COc1ccc2c(c1)CC(N(C)C(=O)C1CCOCC1)Cn1c-2c(C2CCCCC2)c2ccc(C(=O)O)cc21` (stereo not shown), for which the IC50 was < 20 nM.

As for `CC(=O)NC1Cc2ccccc2-c2c(C3CCCCC3)c3ccc(C(=O)NS(=O)(=O)N(C)C)cc3n2C1` (stereo not shown), the IC50 fell in the range of 10 to 1000 nM.

For `COc1ccc2c(c1)C=C(C(=O)N1CCC(C(=O)N(C)C)CC1)Cn1c-2c(C2CCCCC2)c2ccc(C(=O)NS(=O)(=O)N3CCN(C)CC3)cc21`, the IC50 lay within 10 to 1000 nM.

Regarding `C[C@@H]1CN(C(=O)C2=Cc3ccccc3-c3c(C4CCCCC4)c4ccc(C(=O)NS(=O)(=O)OCC(C)(C)C)cc4n3C2)C[C@H](C)O1`, the IC50 lay within 10 to 1000 nM.

Regarding `C[C@@H]1CN(C(=O)C2=Cc3cc(F)ccc3-c3c(C4CCCCC4)c4ccc(C(=O)O)cc4n3C2)C[C@H](C)N1C`, the IC50 was in the range of 10 to 1000 nM.

For the molecule `COc1ccc2c(c1)C=C(C(=O)N1C[C@@H](C)N(C)[C@@H](C)C1)Cn1c-2c(C2CCCCC2)c2ccc(C(=O)NS(=O)(=O)N(C)C)cc21`, the IC50 fell in the range of 10 to 1000 nM.

The values above are taken from patent US7473688B2, “Indolobenzazepine HCV NS5B inhibitors” (Bristol-Myers Squibb Company, priority 2005, dated 2009).
